Assay results published in patent publication US9211350B2, “Compound with amyloid affinity” (priority 2011, dated 2015).

Experiments:
[1] = system: amyloid in brain of AD patients; assay: Autoradiography of brain slice of AD patients; assay type: binding, human; conditions: 5 μm brain slice of AD patients, 10 kBq/mL, compared with immunostaining by anti-amyloid antibody
Method: The following experiment was carried out in order to examine whether the compound of the present invention can image amyloid in brain of AD patients.
• (1) A 5 μm thick brain slice of AD patients was prepared from a brain tissue of AD patients available from Analytical Biological Services Inc. (United States). • (2) The brain slice prepared for each test substance was immersed in PBS 3 times in total: 15 minutes, 5 minutes and 5 minutes in this order. Next, it was immersed in a 1% BSA-containing PBS for 30 minutes to conduct hydrophilization. As the test substance, a 1% BSA-containing PBS containing each of Compound 1, Compound 2, Compound 3, Compound 4, Compound 5 and [^123I]-IMPY (radioactive concentration: 10 kBq/mL) was prepared and used. The above hydrophilized brain slice was immersed at room temperature in each of the test substance solutions. Then, it was immersed in a 1% BSA-containing PBS for 5 minutes, next in a PBS for 5 minutes and further in a PBS for 5 minutes to wash the brain slices. The washed brain slice was sufficiently dried, and then exposed to an imaging plate for 16 hours, and then autoradiogram image analysis was carried out by use of a Bio-imaging Analyzer (type: BAS-2500; manufactured by FUJIFILM Corporation) (FIG. 7, FIG. 8, FIG. 9, FIG. 10, FIG. 11, FIG. 12). • (3) Separately, immunostaining at a site of amyloid deposition with an anti-amyloid antibody was carried out using adjacent slices which were subjected to hydrophilization in accordance with the same procedures as the above. Anti-Human Amyloidβ(N) (82E1) Mouse IgG MoAb (Immuno-Biological Laboratories Co., Ltd.) was used as the anti-amyloid antibody, and Anti-Mouse IgG (H+L) Goat IgG Fab′-HRP (Immuno-Biological Laboratories Co., Ltd.) was used as a secondary antibody. The site of amyloid deposition was detected by applying the DAB+(3,3′-diaminobenzidinetetrahydrochloride) substrate kit (Dako) to HRP attached to the secondary antibody (FIG. 13). Results

[2] = Measurement of transferability into brain and clearance (radioactive accumulation in brain); conditions: rats; for Radioactive accumulation per unit weight (% ID/g) in brain, After 2 min. / Radioactive accumulation per unit weight (% ID/g) in brain, After 60 min.: intravenous injection (tail vein); for Radioactive accumulation per unit weight (% ID/g) in brain, After 2 min.: 2 minutes after the injection; for Radioactive accumulation per unit weight (% ID/g) in brain, After 60 min.: 60 minutes after the injection; for Transferability to brain and clearance from brain (in words): intravenous injection, 2 and 60 minutes
Method: Using Compound 1, Compound 2, Compound 3, Compound 4 and Compound 5, radioactive accumulation in brain of male Wistar rats (8-week old) was measured.
A solution in which Compound 1, Compound 2, Compound 4 and Compound 5 were respectively dissolved in a physiological saline solution containing 50 mmol/L of L-cysteine hydrochloride was prepared, to obtain a sample solution (radioactive concentration: all 37 MBq/mL). A solution in which Compound 3 was dissolved in a physiological saline solution containing 10% ethanol and 50 mmol/L of L-cysteine hydrochloride was prepared, to obtain a sample solution (radioactive concentration: 37 MBq/mL). The sample solution was injected under non-anesthesia into the tail vein of male Wistar rats (8-week old) (dosage: 0.2 mL, dosed radioactivity: 7.4 MBq equivalent). The rats were sacrificed by decapitating under non-anesthesia to sample bloods and brains 2 and 60 minutes after the injection. Brains were subjected to measurement of mass of brains and further subjected to measurement of radioactivity (hereinafter referred to as A in this Example) with a single channel analyzer (detector type: SP-20 manufactured by OHYO KOKEN KOGYO Co., Ltd.). Further, the radioactivity level of the rest of the whole body including blood was measured in the same manner as above (hereinafter referred to as B in this Example). Using these measurement results, the amount of radioactive accumulation per unit weight of brain (% ID/g) at the respective time points after the dissection were calculated in accordance with the following formula (2).
The same procedure as the above was carried out to calculate the amount of radioactive accumulation per unit weight of brain (% ID/g) at the respective time points after the dissection.
Meanwhile, in this Example, three animals were used for the experiment at the respective time points.

[3] = Measurement of partition coefficient based on the octanol extraction method; assay type: physicochemical; conditions: 1-octanol/water; average of 200 μL, 400 μL and 800 μL samples
Method: Partition coefficients based on the octanol extraction method (hereinafter referred to as log Poctanol) were measured, which are generally known as an indicator of permeability of compounds through the blood-brain barrier (hereinafter referred to as BBB).
Compound 1, Compound 2, Compound 3 and Compound 4 were adjusted to about 1 MBq/mL respectively using a water saturated 1-octanol solution to obtain sample solutions. Each sample solution in an amount of 30 μL was added to three microtubes. The three microtubes to which each sample solution was added were supplemented with both water saturated 1-octanol and 1-octanol saturated water so as to make the volume to be 200 μL, 400 μL or 800 μL, respectively (referred to as 200 μL sample, 400 μL sample and 800 μL sample, respectively). Each microtube was subjected to stirring, and then was shaken for 5 minutes (20 to 25±2° C., 20 rpm/min). Next, the mixture in each microtube was centrifuged (23° C., 3000 g×20 min.) with a centrifuge (type: T2-MC, manufactured by BECKMAN), and then 50 μL each of the octanol layer and the water layer was obtained, and subjected to measurement of radioactivity with an Autowell Gamma system (Type: ARC-7001, manufactured by Aloka). Using the obtained count, log Poctanol was calculated in accordance with the following equation (1). Meanwhile, the value of log Poctanol was an average value of the values which were respectively calculated for the 200 μL sample, the 400 μL sample and the 800 μL sample.

[4] = system: amyloid aggregates; assay: In vitro binding test with gray matter and white matter homogenate of brain of AD patients; parameters: species or system human; conditions: for Radioactive amount attached to brain tissue of AD patients (%), Gray matter: brain gray matter homogenate of AD patients (amyloid deposition); for Radioactive amount attached to brain tissue of AD patients (%), Gray matter / Radioactive amount attached to brain tissue of AD patients (%), White matter: 100 μg protein/mL, 3 hours, 22° C., relative to added radioactivity; for Radioactive amount attached to brain tissue of AD patients (%), White matter: brain white matter homogenate of AD patients (no amyloid); for Binding property to amyloid deposited in the brain (in words): gray matter versus white matter homogenate of AD patients
Method: Binding properties to amyloid aggregates of Compound 1, Compound 3, Compound 4, Compound 5 and [^123I]-IMPY were evaluated by the following in vitro binding test.
The assay was conducted using a gray matter homogenate of brain of AD patients and a white matter homogenate of brain of AD patients, which were prepared from a brain tissue (Frontal lobe) of AD patients commercially available from Analytical Biological Services Inc. (United States).
To each well of a 96-well microplate, 150 μL of a 0.1% BSA-containing 5 mmol/L phosphate buffer saline solution and 50 μL of a sample solution prepared above were added. Two wells were afforded to each sample solution. Of the two wells in which each sample solution was added, one received 50 μL of the brain grey matter homogenate of AD patients, and the other received 50 μL of the brain white matter homogenate of AD patients (final concentration: 100 μg protein/mL), so that the reaction was initiated. After the reaction solution was shaken for 3 hours (22° C., 400 rpm), a glass fiber filter (Multiscreen HTS FB, manufactured by Millipore) was used to filter the reaction solution. The filtrated filter was washed with a 0.1% BSA-containing 5 mmol/L phosphate buffer saline solution (200 μL, 3 times), and then radioactivity remained in the filter was measured with an Autowell Gammma system (type: ARC-7001, manufactured by Aloka). The ratio (%) of the radioactivity attached to the brain grey matter homogenate of AD patients or the brain white matter homogenate of AD patients relative to the added-radioactivity was calculated from the resulting count. Meanwhile, the above was repeated 3 times.

Row | Molecule | Binding to the site of amyloid deposition on autoradiogram (in words) [1] | Radioactive accumulation per unit weight (% ID/g) in brain, After 2 min. [2] [% ID/g] | Radioactive accumulation per unit weight (% ID/g) in brain, After 60 min. [2] [% ID/g] | Transferability to brain and clearance from brain (in words) [2] | logPoctanol value [3] | Radioactive amount attached to brain tissue of AD patients (%), Gray matter [4] [%] | Radioactive amount attached to brain tissue of AD patients (%), White matter [4] [%] | Binding property to amyloid deposited in the brain (in words) [4]
1 | [123I]c1ccc2nc(-c3ccc(-n4ccnn4)nc3)cn2c1 [Compound 1, [^123I]-6-iodo-2-[2-(1H-1,2,3-triazole-1-yl)pyridine-5-yl]imidazo[1,2-a]pyridine] | binding of the compounds to the site of amyloid deposition confirmed by immunostaining was also be confirmed | 1.226 | 0.028 | excellent transferability to brain and rapid clearance from brain | 2.10 | 2.59 | 0.48 | have a binding property to amyloid deposited in the brain
2 | CN(C)c1ccc(-c2cn3cc(I)ccc3n2)cc1 [[^123I]-IMPY, 6-iodo-2-[4′-(N,N-dimethylamino)phenyl]imidazo[1,2-a]pyridine, reference compound] | binding of the compounds to the site of amyloid deposition confirmed by immunostaining was also be confirmed | 1.644 | 0.085 |  |  | 1.97 | 0.77 | 
3 | [^123I]-6-iodo-2-[2-(1H-1,2,4-triazole-1-yl)pyridine-5-yl]imidazo[1,2-a]pyridine [Compound 4] | binding of the compounds to the site of amyloid deposition confirmed by immunostaining was also be confirmed | 1.287 | 0.056 | excellent transferability to brain and rapid clearance from brain | 2.23 | 1.13 | 0.17 | have a binding property to amyloid deposited in the brain
4 | [^123I]-6-iodo-2-[2-(1H-imidazole-1-yl)pyridine-5-yl]imidazo[1,2-a]pyridine [Compound 3] | binding of the compounds to the site of amyloid deposition confirmed by immunostaining was also be confirmed | 1.186 | 0.246 | excellent transferability to brain and rapid clearance from brain | 1.91 | 2.00 | 0.83 | have a binding property to amyloid deposited in the brain
5 | [^123I]-6-iodo-2-[2-(2H-1,2,3-triazole-2-yl)pyridine-5-yl]imidazo[1,2-a]pyridine [Compound 2] | binding of the compounds to the site of amyloid deposition confirmed by immunostaining was also be confirmed | 1.160 | 0.027 | excellent transferability to brain and rapid clearance from brain | 2.05 |  |  | 
6 | [^123I]-6-iodo-2-[2-(pyrazole-1-yl)pyridine-5-yl]imidazo[1,2-a]pyridine [Compound 5] | binding of the compounds to the site of amyloid deposition confirmed by immunostaining was also be confirmed | 1.500 | 0.079 | excellent transferability to brain and rapid clearance from brain |  | 2.41 | 0.77 | have a binding property to amyloid deposited in the brain
